The values below come from article PMC10943827, “Engineering Saccharomyces cerevisiae for targeted hydrolysis and fermentation of glucuronoxylan through CRISPR/Cas9 genome editing” (Microbial Cell Factories, 2024).

The target in the assay is T1, XylA (Aspergillus oryzae, UniProt Q2UR38).
T1 construct: gene xlnD; codon-optimized gene, N-terminal S. cerevisiae SED1 secretory signal peptide, expressed from X2 locus of S. cerevisiae CEN.PK XXX; secretome, intact cells and lysate assayed
T1 sequence (Q2UR38 21-798): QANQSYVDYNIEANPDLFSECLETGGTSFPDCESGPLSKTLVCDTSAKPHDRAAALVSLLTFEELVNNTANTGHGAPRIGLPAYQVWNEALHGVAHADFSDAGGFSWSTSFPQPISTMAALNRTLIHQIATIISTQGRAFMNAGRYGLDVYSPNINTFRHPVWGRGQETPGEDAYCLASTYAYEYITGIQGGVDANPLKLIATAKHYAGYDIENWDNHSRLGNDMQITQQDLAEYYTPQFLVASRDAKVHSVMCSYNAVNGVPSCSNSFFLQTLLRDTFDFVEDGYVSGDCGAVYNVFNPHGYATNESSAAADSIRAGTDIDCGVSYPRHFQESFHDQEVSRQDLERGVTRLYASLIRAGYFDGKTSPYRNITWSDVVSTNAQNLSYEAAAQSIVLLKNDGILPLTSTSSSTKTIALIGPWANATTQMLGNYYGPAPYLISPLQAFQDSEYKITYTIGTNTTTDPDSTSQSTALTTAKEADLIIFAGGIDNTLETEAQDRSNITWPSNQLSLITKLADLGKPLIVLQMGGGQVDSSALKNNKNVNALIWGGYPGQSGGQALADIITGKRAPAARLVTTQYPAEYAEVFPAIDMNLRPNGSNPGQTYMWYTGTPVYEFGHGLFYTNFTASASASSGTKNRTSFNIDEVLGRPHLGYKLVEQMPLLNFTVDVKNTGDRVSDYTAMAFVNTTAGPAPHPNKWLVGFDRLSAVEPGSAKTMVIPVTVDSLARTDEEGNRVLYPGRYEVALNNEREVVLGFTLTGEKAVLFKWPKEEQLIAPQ
In words: p-nitrophenol release at […] nm, secretome / cell / intracellular fractions of XylA strain versus parent XXX strain. Conditions: 5 mM substrate, 20 mM sodium phosphate pH 7, 30 °C, 30 min. The assay is classed as cell-based.

With `O=[N+]([O-])c1ccc(O[C@@H]2OC[C@@H](O)[C@H](O)[C@H]2O)cc1` [p-nitrophenyl-β-D-xylopyranoside], the “p-nitrophenol release at 405 nm, secretome / cell / intracellular fractions of X” value is reported as “subcellular β-xylosidase activity quantified using p-nitrophenyl-β-D-xylopyranoside”.
